In patent US7780989B2, “Process for the preparation of crystalline nano-particle dispersions” (AstraZeneca AB, priority 2002, dated 2010):
Read-outs that look alike come from different tables or passages of the source.

Assay: Crystalline and amorphous solubility of the substance
Assay type: physicochemical
Conditions: water
Experimental: The solubility of the substance in water may be measured using a conventional technique. For example, a saturated solution of the substance is prepared by adding an excess amount of the substance to water at 25° C. and allowing the solution to equilibrate for 48 hours. Excess solids are removed by centrifugation or filtration and the concentration of the substance in water is determined by a suitable analytical technique such as HPLC. Without wishing to be bound by theory, it is thought that the formation of the initial suspension of amorphous particles following combination of the first solution with the aqueous phase promotes the subsequent formation of a uniform dispersion of nano-crystalline particles during the subsequent sonication. […] It is thought that the presence of the dispersion of amorphous particles during the sonication provides a reservoir of material in solution for the crystallisation step and thereby maintains a high and constant level of super-saturation relative to the crystalline solubility because of the higher amorphous solubility. The high and relatively constant degree of supersaturation provided by the presence of the amorphous particles provides favorable conditions for the formation of a large number of primary nuclei upon application of the ultrasound to the dispersion of amorphous particles. […]

solubility (25 °C, thermodynamic from solid, crystalline form, read-out: crystalline solubility): 2 µM
solubility (amorphous form, read-out: amorphous solubility): ~24 µM
SMILES: CCOC(=O)C1=C(C)NC(C)=C(C(=O)OC)C1c1cccc(Cl)c1Cl (centres unmarked) [felodipine]
